Results taken from PMC10991534, “The redox-sensitive R-loop of the carbon control protein SbtB contributes to the regulation of the cyanobacterial CCM” (Scientific Reports, 2024).

Tests used:
Assay in all cases: ITC, one set of sites model
[1] = molecular target: T1, SbtB-Δ104 (Synechocystis sp. PCC 6803, UniProt P73954); format: binding
T1 construct: gene slr1513; C-terminal R-loop truncated, StrepII-tagged, recombinant, trimer

[2] = molecular target: T2, SbtB (Synechocystis sp. PCC 6803, UniProt P73954); details: WT oxidized R-loop; re-calculated here from the group's earlier ITC data (ref 11) with single binding model; cited from earlier work
T2 construct: gene slr1513; R-loop Cys105-Cys110

[3] = molecular target: T3, SbtB (Synechocystis sp. PCC 6803, UniProt P73954, C105A/C110A); format: binding
T3 construct: gene slr1513; R-loop Cys105-Cys110

[4] = molecular target: T4, SbtB (Synechocystis sp. PCC 6803, UniProt P73954, C110S); format: binding
T4 construct: gene slr1513; R-loop Cys105-Cys110

[5] = molecular target: T5, SbtB (Synechocystis sp. PCC 6803, UniProt P73954, C105S); format: binding
T5 construct: gene slr1513; R-loop Cys105-Cys110

[6] = molecular target: T6, SbtB-Δ109 (Synechocystis sp. PCC 6803, UniProt P73954); format: binding
T6 construct: gene slr1513; last residue Cys110 deleted, StrepII-tagged, recombinant, trimer

[7] = molecular target: T7, SbtB (Synechocystis sp. PCC 6803, UniProt P73954, C105S/C110S); format: binding
T7 construct: gene slr1513; R-loop Cys105-Cys110
T7 sequence (P73954 whole entry C105S/C110S): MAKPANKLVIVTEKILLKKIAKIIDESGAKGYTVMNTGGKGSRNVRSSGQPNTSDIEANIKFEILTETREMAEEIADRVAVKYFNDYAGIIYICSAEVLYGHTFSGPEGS

T1 sequence (P73954 1-104, stated change not applied): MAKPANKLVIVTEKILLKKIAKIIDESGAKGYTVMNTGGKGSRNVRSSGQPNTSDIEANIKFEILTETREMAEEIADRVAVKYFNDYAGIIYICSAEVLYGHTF
T2 sequence (P73954 whole entry): as the sequence (P73954 whole entry C105S/C110S) above, with S105C, S110C counted along it
T4 sequence (P73954 whole entry C110S): as the sequence (P73954 whole entry C105S/C110S) above, with S105C counted along it
T5 sequence (P73954 whole entry C105S): as the sequence (P73954 whole entry C105S/C110S) above, with S110C counted along it
T6 sequence (P73954 1-109, stated change not applied): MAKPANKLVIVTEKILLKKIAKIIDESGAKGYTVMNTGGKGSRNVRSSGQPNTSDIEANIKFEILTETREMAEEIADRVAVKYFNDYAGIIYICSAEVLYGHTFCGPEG
T3 sequence (P73954 whole entry C105A/C110A): as the sequence (P73954 whole entry C105S/C110S) above, with S105A, S110A counted along it

Kd [1] [µM]	Kd [3] [µM]	Kd [4] [µM]	Kd [5] [µM]	Kd [6] [µM]	Kd [7] [µM]	Structure (SMILES)	Kd [2] [µM]
79.2 ± 55.1	–	–	–	–	–	Nc1ncnc2c1ncn2[C@@H]1O[C@H](COP(=O)(O)OP(=O)(O)O)[C@@H](O)[C@H]1O [ADP]	55.8 ± 7.7
78.2 ± 6	–	–	–	–	–	Nc1ncnc2c1ncn2[C@@H]1O[C@H](COP(=O)(O)O)[C@@H](O)[C@H]1O [AMP]	87.4 ± 3.7
35 ± 7.1	29.8 ± 14.1	60.1 ± 6.7	40.5 ± 75.9	32.5 ± 17.9	47.6 ± 21.3	Nc1ncnc2c1ncn2[C@@H]1O[C@H](COP(=O)(O)OP(=O)(O)OP(=O)(O)O)[C@@H](O)[C@H]1O [ATP]	62.5 ± 16.6
